# Data as given in patent US20060148730A1, “Method of treating tuberculosis” (priority 2003, published 2006).
# Like-named read-outs stand apart in the source and are kept apart here.
# Legend:
# M. tuberculosis H37Rv [1] = test: MIC vs. M. tuberculosis H37Rv, microplate Alamar Blue assay (MABA); format: cell-based; details: for anti-TB activity / MIC in words: result in words; for enhancement in potency of macrolide over counterpart ketolide: MIC ratio ketolide/macrolide
# VERO cells = test: Cytotoxicity against VERO cells (MTS, 72 hours); details: for in vitro toxicity / cytotoxicity in words: result in words; for IC50: Chlorocebus sabaeus, Vero
# [2] = Overt toxicity in mice, escalating 5-day dosing cycles; format: in vivo, Balb/C mice; details: once daily, 5-day cycles, sequentially 200, 300, 400, 500 mg/kg
# Procedure: Prior to assessing in vivo efficacy, RU66252 and RU69874 were administered to pairs of female Balb/C mice once daily for 5-day cycles, and observed for overt signs of toxicity (e.g., weight loss, ruffled fur, and huddling), after which the mice were rested for 1 or 2 days. Then the dosage was increased for another 5-day cycle. Overall, the same mice received sequentially for 5 days: 200, 300, 400, and 500 mg/kg.
# [3] = system: J774.1 macrophage cell line; test: Cytotoxicity against J774.1 macrophage cell line; format: cell-based, murine; details: Mus musculus
# M. tuberculosis Erdman = format: in vivo, BALB/c mice
# M. tuberculosis = details: literature (Luna-Herrera 1995; Truffot-Pernot 1995); cited from earlier work
# M. tuberculosis H37Rv [4] = details: cited from earlier work
# [5] = Table 1a, 11,12-carbamate derivatives, anti-TB activity, read-out: MIC
# [6] = Mycobacterium tuberculosis, H37RV, Table 1a, 11,12-carbamate derivatives, anti-TB activity, read-out: MIC
# [7] = Table 2a, 11,12-diols, anti-TB activity, read-out: MIC
# [8] = Table 3, parallel-synthesis carbazate library products, SPE purified, read-out: MIC
smiles,measurement,setting,value
CC[C@H]1OC(=O)[C@@](C)(F)C(=O)[C@H](C)[C@@H](O[C@@H]2O[C@H](C)C[C@H](N(C)C)[C@H]2O)[C@](C)(OCC#Cc2cc(-c3cnc4ccccc4c3)no2)C[C@@H](C)C(=O)[C@H](C)[C@H]2NC(=O)O[C@@]21C [Compound A323348],MIC,M. tuberculosis H37Rv [1]; [5],0.38 µM
same,MIC,M. tuberculosis H37Rv [1]; read-out: minimum inhibitory concentration (MIC) against M. tuberculosis,0.38 µM
same,anti-TB activity / MIC in words,M. tuberculosis H37Rv [1],very low
same,in vitro toxicity / cytotoxicity in words,VERO cells,comparable to clarithromycin
CC[C@H]1OC(=O)[C@H](C)[C@@H](O[C@H]2C[C@@](C)(OC)[C@@H](O)[C@H](C)O2)[C@H](C)[C@@H](O[C@@H]2O[C@H](C)C[C@H](N(C)C)[C@H]2O)[C@](C)(OC)C[C@@H](C)C(=O)[C@H](C)[C@H]2N(CCCCn3cnc(-c4cccnc4)c3)C(=O)O[C@]12C [RU69874],anti-TB activity / MIC in words,M. tuberculosis H37Rv [1],very low
same,"signs of overt toxicity (weight loss, ruffled fur, huddling)",[2],No signs of overt toxicity
same,in vitro toxicity / cytotoxicity in words,VERO cells,comparable to clarithromycin
CC[C@H]1OC(=O)[C@H](C)C(OC2CC(C)(OC)[C@@H](O)[C@H](C)O2)[C@H](C)[C@@H](O[C@@H]2O[C@H](C)C[C@H](N(C)C)[C@H]2O)[C@](C)(OC)C[C@@H](C)C(=O)[C@H](C)[C@H]2N(NCCCc3ccnc4ccccc34)C(=O)O[C@]12C (stereo partly drawn) [RU66252],enhancement in potency of macrolide over counterpart ketolide,M. tuberculosis H37Rv [1],16 fold
same,MIC,M. tuberculosis H37Rv [1]; [6],0.25 µM
same,MIC,"M. tuberculosis H37Rv [1]; Mycobacterium tuberculosis, H37RV, Table 3, parallel-synthesis carbazate library products, SPE purified, read-out: MIC",9 µM
same,MIC,"M. tuberculosis H37Rv [1]; Mycobacterium tuberculosis, H37RV, follow-up assays, read-out: MIC vs. M. tuberculosis in follow-up assays",~9 µM
same,MIC,"M. tuberculosis H37Rv [1]; Mycobacterium tuberculosis, H37RV, read-out: minimum inhibitory concentration (MIC) against M. tuberculosis",0.25 µM
same,anti-TB activity / MIC in words,M. tuberculosis H37Rv [1],very low
same,IC50,"[3]; J774.1, Table 1a, toxicity, read-out: J774 IC50",16.1 µM
same,activity against M. tuberculosis in the acute phase of infection,"M. tuberculosis Erdman; […], 100 and 200 mg/kg qd, untreated controls abnormally low",dose-dependent activity
same,colonies on 10-2 dilution plates of lung homogenates,M. tuberculosis Erdman; treated mouse lung homogenates,no colonies
same,"signs of overt toxicity (weight loss, ruffled fur, huddling)",[2],No signs of overt toxicity
same,IC50,VERO cells; read-out: Vero IC50,24.9 µM
same,IC50,VERO cells; read-out: toxicity based on VERO cells,25 µM
same,in vitro toxicity / cytotoxicity in words,VERO cells,comparable to clarithromycin
"CC[C@H]1OC(=O)[C@H](C)[C@@H](O[C@H]2C[C@@](C)(OC)[C@@H](O)[C@H](C)O2)[C@H](C)[C@@H](O[C@@H]2O[C@H](C)C[C@H](N(C)C)[C@H]2O)[C@](C)(OC)C[C@@H](C)C(=O)[C@H](C)[C@@H](O)[C@]1(C)O [Clarithromycin, reference compound]",enhancement in potency of macrolide over counterpart ketolide,M. tuberculosis H37Rv [1],16 fold
same,MIC,M. tuberculosis H37Rv [1]; [7],8 µM
same,activity in mouse models,M. tuberculosis,marginal and nil
"CC[C@H]1OC(=O)[C@H](C)C(=O)[C@H](C)[C@@H](O[C@@H]2O[C@H](C)C[C@H](N(C)C)[C@H]2O)[C@](C)(OC)C[C@@H](C)C(=O)[C@H](C)[C@H]2N(CCCCn3cnc(-c4cccnc4)c3)C(=O)O[C@]12C [Telithromycin, reference compound]",MIC,M. tuberculosis H37Rv [1]; [6],48 µM
same,anti-TB activity / MIC in words,M. tuberculosis H37Rv [1],less active than clarithromycin
same,IC50,"[3]; J774.1, read-out: J774 IC50",102 µM
same,IC50,"[3]; J774.1, read-out: toxicity based on J774 cells",102 µM
CC[C@H]1OC(=O)[C@H](C)[C@@H](O[C@H]2CC(C)(OC)[C@@H](O)[C@H](C)O2)[C@H](C)[C@@H](O[C@@H]2O[C@H](C)C[C@H](N(C)C)[C@H]2O)[C@](C)(OC)C[C@@H](C)C(=O)[C@H](C)[C@H]2N(CCCCc3ccnc4ccccc34)C(=O)O[C@]12C (stereo partly drawn) [RU66080],MIC,M. tuberculosis H37Rv [1]; [5],0.44 µM
CCC1OC(=O)C(C)C(OC2CC(C)(OC)C(O)C(C)O2)C(C)C(OC2OC(C)CC(N(C)C)C2O)C(C)(O)CC(C)C(=NNCc2ccc(C(F)(F)F)cc2)C(C)C(O)C1(C)O (stereo not drawn) [Compound 1OK133],MIC,"M. tuberculosis H37Rv [1]; Table 5, read-out: MIC",25 µM
CC[C@H]1OC(=O)[C@H](C)[C@@H](O[C@H]2CC(C)(OC)[C@@H](O)[C@H](C)O2)[C@H](C)[C@@H](O[C@@H]2O[C@H](C)C[C@H](N(C)C)[C@H]2O)[C@](C)(OC)C[C@@H](C)C(=O)[C@H](C)[C@H]2N(NCc3ccc(N4CCC(c5ccccc5OC)CC4)c([N+](=O)[O-])c3)C(=O)O[C@]12C (stereo partly drawn) [G12′],MIC,M. tuberculosis H37Rv [1]; [8],19 µM
CC[C@H]1OC(=O)[C@H](C)C(=O)[C@H](C)[C@@H](O[C@@H]2O[C@H](C)C[C@H](N(C)C)[C@H]2O)[C@](C)(OC)C[C@@H](C)C(=NOCOCCOC)[C@H](C)[C@@H](O)[C@]1(C)O [RU54615],MIC,M. tuberculosis H37Rv [1]; [7],>128 µM
CC[C@H]1OC(=O)[C@H](C)[C@@H](O[C@H]2CC(C)(OC)[C@@H](O)[C@H](C)O2)[C@H](C)[C@@H](O[C@@H]2O[C@H](C)C[C@H](N(C)C)[C@H]2O)[C@](C)(OC)C[C@@H](C)C(=O)[C@H](C)[C@H]2N(NCc3cc4ccccc4s3)C(=O)O[C@]12C (stereo partly drawn) [G2′],MIC,M. tuberculosis H37Rv [1]; [8],11 µM
CCC1OC(=O)C(C)C(OC2CC(C)(OC)C(OC(C)=O)C(C)O2)C(C)C(OC2OC(C)CC(N(C)C)C2OC(C)=O)C(C)(OC)CC(C)C(=O)C(C)C2N(NCCCc3ccnc4ccccc34)C(=O)OC12C (stereo not drawn) [ITR0005],MIC,"M. tuberculosis H37Rv [1]; Table 5, read-out: MIC",7.7 µM
CC[C@H]1OC(=O)[C@H](C)[C@@H](O[C@H]2CC(C)(OC)[C@@H](O)[C@H](C)O2)[C@H](C)[C@@H](O[C@@H]2O[C@H](C)C[C@H](N(C)C)[C@H]2O)[C@](C)(OC)C[C@@H](C)C(=O)[C@H](C)[C@H]2N(NCc3c(C)[nH]c4ccc([N+](=O)[O-])cc34)C(=O)O[C@]12C (stereo partly drawn) [B11′],MIC,M. tuberculosis H37Rv [1]; [8],>22 µM
CCC1OC(=O)C(C)C(OC2CC(C)(OC)C(O)C(C)O2)C(C)C(OC2OC(C)CC(N(C)C)C2O)C(C)(OC)CC(C)C(=NOC2CCCNC2)C(C)C(O)C1(C)O (stereo not drawn) [ITR0009],MIC,"M. tuberculosis H37Rv [1]; Table 4, read-out: MIC",24 µM
CC[C@H]1OC(=O)[C@H](C)[C@@H](O[C@H]2CC(C)(OC)[C@@H](O)[C@H](C)O2)[C@H](C)[C@@H](O[C@@H]2O[C@H](C)C[C@H](N(C)C)[C@H]2O)[C@](C)(OC)C[C@@H](C)C(=O)[C@H](C)[C@H]2N(NCc3csc(-c4ccccc4)n3)C(=O)O[C@]12C (stereo partly drawn) [F9′],MIC,M. tuberculosis H37Rv [1]; [8],12.6 µM
CC[C@H]1OC(=O)[C@H](C)[C@@H](O)[C@H](C)[C@@H](OC2OC(C)CC(N(C)C)C2OC(=O)Nc2ccccc2)[C@](C)(OC)C/C(C)=C2/O[C@@]1(C)C=C2C (stereo partly drawn) [Compound 1GYG9],MIC,"M. tuberculosis H37Rv [1]; Mycobacterium tuberculosis, H37RV, Table 5, read-out: MIC",16 µM
CC[C@H]1OC(=O)[C@H](C)[C@@H](O[C@H]2CC(C)(OC)[C@@H](O)[C@H](C)O2)[C@H](C)[C@@H](O[C@@H]2O[C@H](C)C[C@H](N(C)C)[C@H]2O)[C@](C)(OC)C[C@@H](C)C(=O)[C@H](C)[C@H]2N(NC/C=C/c3ccccc3)C(=O)O[C@]12C (stereo partly drawn) [A4′],MIC,M. tuberculosis H37Rv [1]; [8],7 µM
NNC(=O)c1ccncc1 [Isoniazid],expected MIC range of positive quality control compound,M. tuberculosis H37Rv [4],0.025 to 0.1 µg/mL
CCC1OC(=O)C(C)C(OC2CC(C)(OC)C(O)C(C)O2)C(C)C(OC2OC(C)CC(N(C)C)C2O)C(C)(O)CC(C)C(=NNCc2ccc(SC)cc2)C(C)C(O)C1(C)O (stereo not drawn) [Compound 1OK137],MIC,"M. tuberculosis H37Rv [1]; Table 5, read-out: MIC",47 µM
CC[C@H]1OC(=O)[C@H](C)[C@@H](O[C@H]2CC(C)(OC)[C@@H](O)[C@H](C)O2)[C@H](C)[C@@H](O[C@@H]2O[C@H](C)C[C@H](N(C)C)[C@H]2O)[C@](C)(OC)C[C@@H](C)C(=O)[C@H](C)[C@H]2N(NCc3cnn(-c4ccc(F)cc4)c3C)C(=O)O[C@]12C (stereo partly drawn) [D7′],MIC,M. tuberculosis H37Rv [1]; [8],13 µM
CCC1OC(=O)C(C)C(OCc2ccccc2)C(C)C(OC2OC(C)CC([N+](C)(C)Cc3ccccc3)C2OCc2ccccc2)C(C)(OC)CC(C)C(=NOCc2ccccc2)C(C)C(O)C1(C)O (stereo not drawn) [Compound 2GY12],MIC,"M. tuberculosis H37Rv [1]; Table 5, read-out: MIC",6.3 µM
CC[C@H]1OC(=O)[C@H](C)[C@@H](O)[C@H](C)[C@@H](O[C@@H]2O[C@H](C)C[C@H](N(C)C)[C@H]2O)[C@](C)(OC)C[C@@H](C)C(=NOCCc2ccccc2)[C@H](C)[C@@H](O)[C@]1(C)O [Compound 2GY7],MIC,"M. tuberculosis H37Rv [1]; Table 5, read-out: MIC",16 µM
CCC1OC(=O)C(C)C(OC2CC(C)(OC)C(O)C(C)O2)C(C)C(OC2OC(C)CC(N(C)C)C2O)C(C)(O)CC(C)C(=NNC2CCCCC2)C(C)C(O)C1(C)O (stereo not drawn) [Compound 1OK107],MIC,"M. tuberculosis H37Rv [1]; Table 5, read-out: MIC",3.9 µM
CC[C@H]1OC(=O)[C@H](C)[C@@H](O[C@H]2CC(C)(OC)[C@@H](O)[C@H](C)O2)[C@H](C)[C@@H](O[C@@H]2O[C@H](C)C[C@H](N(C)C)[C@H]2O)[C@](C)(OC)C[C@@H](C)C(=O)[C@H](C)[C@H]2N(NCc3cccc4nsnc34)C(=O)O[C@]12C (stereo partly drawn) [H3′],MIC,M. tuberculosis H37Rv [1]; [8],>22 µM
CC[C@H]1OC(=O)[C@H](C)[C@@H](O[C@H]2CC(C)(OC)[C@@H](O)[C@H](C)O2)[C@H](C)[C@@H](O[C@@H]2O[C@H](C)C[C@H](N(C)C)[C@H]2O)[C@](C)(OC)C[C@@H](C)C(=O)[C@H](C)[C@H]2N(NCc3ccnc4ccccc34)C(=O)O[C@]12C (stereo partly drawn) [D11′],MIC,M. tuberculosis H37Rv [1]; [8],16 µM
CCC1OC(=O)C(C)(F)C(=O)C(C)C(OC2OC(C)CC(N(C)C)C2O)C(C)(OC)CC(C)C(=O)C(C)C2N(NCCCc3ccnc4ccccc34)C(=O)OC12C (stereo not drawn) [RU3562],MIC,M. tuberculosis H37Rv [1]; [5],16 µM
CC[C@H]1OC(=O)[C@H](C)C(=O)[C@H](C)[C@@H](O[C@@H]2O[C@H](C)C[C@H](N(C)C)[C@H]2O)[C@](C)(OC)C[C@@H](C)C(=O)[C@H](C)[C@H]2N(CCCn3cnc4c3c(=O)n(C)c(=O)n4C)C(=O)O[C@]12C [RU66740],MIC,M. tuberculosis H37Rv [1]; [5],>128 µM
